Measured values taken from PubChem BioAssay AID1963861 (Molecular Pharmacology Branch, DTP, NCI, 2024).

Tested on: 885724-159-R-J1-PDC KRAS PDC multicell spheroid viability
Assay: Anticancer human tumor 885724-159-R-J1-PDC patient-derived pancreatic adenocarcinoma cell line growth inhibition [KRAS2]
Conditions: for IC50: curve of first compound; for viability, T/C: stronger effect = lower value
Outline: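 KRAS-mutant tumor cells were grown as spheroids with HUVEC endothelial cells and human MSCs as stroma. Targeted agents were tested alone and with KRAS pathway inhibitors. Doses started at or near clinical Cmax, or 10 microM, descending half-log.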

[1] = second compound 0.1 µM, first compound 0.000316 µM
[2] = second compound 0.1 µM, first compound 0.001 µM
[3] = second compound 0.1 µM, first compound 0.00316 µM
[4] = second compound 0.1 µM, first compound 0.01 µM
[5] = second compound 0.1 µM, first compound 0.0316 µM
[6] = second compound 0.316 µM, first compound 0.000316 µM
[7] = second compound 0.316 µM, first compound 0.001 µM
[8] = second compound 0.316 µM, first compound 0.00316 µM
[9] = second compound 0.316 µM, first compound 0.01 µM
[10] = second compound 0.316 µM, first compound 0.0316 µM
[11] = second compound 1 µM, first compound 0.000316 µM
[12] = second compound 1 µM, first compound 0.001 µM
[13] = second compound 1 µM, first compound 0.00316 µM
[14] = second compound 1 µM, first compound 0.01 µM
[15] = second compound 1 µM, first compound 0.0316 µM
[16] = second compound 3.16 µM, first compound 0.000316 µM
[17] = second compound 3.16 µM, first compound 0.001 µM
[18] = second compound 3.16 µM, first compound 0.00316 µM
[19] = second compound 3.16 µM, first compound 0.01 µM
[20] = second compound 3.16 µM, first compound 0.0316 µM
[21] = second compound 10 µM, first compound 0.000316 µM
[22] = second compound 10 µM, first compound 0.001 µM
[23] = second compound 10 µM, first compound 0.00316 µM
[24] = second compound 10 µM, first compound 0.01 µM
[25] = second compound 10 µM, first compound 0.0316 µM
[26] = second compound 0.1 µM, first compound 0.1 µM
[27] = second compound 0.316 µM, first compound 0.1 µM
[28] = second compound 1 µM, first compound 0.1 µM
[29] = second compound 3.16 µM, first compound 0.1 µM
[30] = second compound 10 µM, first compound 0.1 µM
[31] = second compound 0.1 µM, first compound 0.316 µM
[32] = second compound 0.1 µM, first compound 1 µM
[33] = second compound 0.1 µM, first compound 3.16 µM
[34] = second compound 0.1 µM, first compound 10 µM
[35] = second compound 0.316 µM, first compound 0.316 µM
[36] = second compound 0.316 µM, first compound 1 µM
[37] = second compound 0.316 µM, first compound 3.16 µM
[38] = second compound 0.316 µM, first compound 10 µM
[39] = second compound 1 µM, first compound 0.316 µM
[40] = second compound 1 µM, first compound 1 µM
[41] = second compound 1 µM, first compound 3.16 µM
[42] = second compound 1 µM, first compound 10 µM
[43] = second compound 3.16 µM, first compound 0.316 µM
[44] = second compound 3.16 µM, first compound 1 µM
[45] = second compound 3.16 µM, first compound 3.16 µM
[46] = second compound 3.16 µM, first compound 10 µM
[47] = second compound 10 µM, first compound 0.316 µM
[48] = second compound 10 µM, first compound 1 µM
[49] = second compound 10 µM, first compound 3.16 µM
[50] = second compound 10 µM, first compound 10 µM
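Note: spheroids exposed to agents for 7 days before readout.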

With `CC(=O)Nc1cccc(-n2c(=O)n(C3CC3)c(=O)c3c(Nc4ccc(I)cc4F)n(C)c(=O)c(C)c32)c1` + COc1cc2nc(C)nc(NC(C)c3cc(N)cc(C(F)(F)F)c3)c2cc1OC1CCOC1 the IC50 (second compound 0.1 µM) was 0.985 nM, the IC50 (second compound 0.316 µM) was 0.909 nM and the IC50 (second compound 1 µM) was 0.845 nM. The IC50 (second compound 3.16 µM) was 0.706 nM, the IC50 (second compound 10 µM) was < 0.1 nM and the viability, T/C (second compound 0.1 µM, first compound 0.0001 µM) was 91%. For the same molecule, the viability, T/C [1] was 73%, the viability, T/C [2] was 48.1% and the viability, T/C [3] was 32.7%. For the same molecule, the viability, T/C [4] was 26.2%, the viability, T/C [5] was 17% and the viability, T/C (second compound 0.316 µM, first compound 0.0001 µM) was 87.2%. For the same molecule, the viability, T/C [6] was 68.9%, the viability, T/C [7] was 46.4% and the viability, T/C [8] was 34.3%. The viability, T/C [9] was 24.9%, the viability, T/C [10] was 17.3% and the viability, T/C (second compound 1 µM, first compound 0.0001 µM) was 89.8%. For the same molecule, the viability, T/C [11] was 68.4%, the viability, T/C [12] was 46.1% and the viability, T/C [13] was 31.6%. The viability, T/C [14] was 24.6%, the viability, T/C [15] was 17.1% and the viability, T/C (second compound 3.16 µM, first compound 0.0001 µM) was 74.9%. It also gave a viability, T/C [16] of 62.8%, a viability, T/C [17] of 44.4% and a viability, T/C [18] of 27.6%. It also gave a viability, T/C [19] of 19.1%, a viability, T/C [20] of 10.7% and a viability, T/C (second compound 10 µM, first compound 0.0001 µM) of 34.8%. The viability, T/C [21] was 18.5%, the viability, T/C [22] was 3.24% and the viability, T/C [23] was 0.51%. The viability, T/C [24] was 0.67% and the viability, T/C [25] was 0.32%.

In the case of `CN(C)C/C=C/C(=O)Nc1cc2c(Nc3ccc(F)c(Cl)c3)ncnc2cc1O[C@H]1CCOC1` + COc1cc2nc(C)nc(NC(C)c3cc(N)cc(C(F)(F)F)c3)c2cc1OC1CCOC1, the IC50 (second compound 0.1 µM) is reported as > 100 nM, the IC50 (second compound 0.316 µM) is reported as > 100 nM and the IC50 (second compound 1 µM) is reported as > 100 nM. For the same molecule, the IC50 (second compound 3.16 µM) was > 100 nM, the IC50 (second compound 10 µM) was > 100 nM and the viability, T/C [1] was 116%. The viability, T/C [2] was 103%, the viability, T/C [3] was 97.1% and the viability, T/C [4] was 88.9%. The viability, T/C [5] was 79.6%, the viability, T/C [26] was 69.2% and the viability, T/C [6] was 98.7%. It also gave a viability, T/C [7] of 102%, a viability, T/C [8] of 92.9% and a viability, T/C [9] of 89%. It also gave a viability, T/C [10] of 67.3%, a viability, T/C [27] of 66.7% and a viability, T/C [11] of 96.4%. It also gave a viability, T/C [12] of 120%, a viability, T/C [13] of 110% and a viability, T/C [14] of 96%. The viability, T/C [15] was 79.1%, the viability, T/C [28] was 73.3% and the viability, T/C [16] was 88.4%. The viability, T/C [17] was 102%, the viability, T/C [18] was 80.3% and the viability, T/C [19] was 72.5%. It also gave a viability, T/C [20] of 68%, a viability, T/C [29] of 61.8% and a viability, T/C [21] of 87.1%. The viability, T/C [22] was 85.7%, the viability, T/C [23] was 75.2% and the viability, T/C [24] was 63.1%. For the same molecule, the viability, T/C [25] was 60% and the viability, T/C [30] was 61.2%.

Work on `COC(=O)c1ccc2c(C(=Nc3ccc(N(C)C(=O)CN4CCN(C)CC4)cc3)c3ccccc3)c(O)[nH]c2c1` + COc1cc2nc(C)nc(NC(C)c3cc(N)cc(C(F)(F)F)c3)c2cc1OC1CCOC1 yielded an IC50 (second compound 0.1 µM) of 2290 nM, an IC50 (second compound 0.316 µM) of 2430 nM and an IC50 (second compound 1 µM) of 1980 nM. For the same molecule, the IC50 (second compound 3.16 µM) was 1780 nM, the IC50 (second compound 10 µM) was < 31.6 nM and the viability, T/C [5] was 121%. It also gave a viability, T/C [26] of 127%, a viability, T/C [31] of 120% and a viability, T/C [32] of 118%. The viability, T/C [33] was 23.7%, the viability, T/C [34] was 1.54% and the viability, T/C [10] was 107%. The viability, T/C [27] was 114%, the viability, T/C [35] was 102% and the viability, T/C [36] was 103%. The viability, T/C [37] was 34.5%, the viability, T/C [38] was 0.96% and the viability, T/C [15] was 103%. For the same molecule, the viability, T/C [28] was 106%, the viability, T/C [39] was 107% and the viability, T/C [40] was 98.1%. For the same molecule, the viability, T/C [41] was 17%, the viability, T/C [42] was 1.09% and the viability, T/C [20] was 93.8%. For the same molecule, the viability, T/C [29] was 98.6%, the viability, T/C [43] was 104% and the viability, T/C [44] was 95.8%. The viability, T/C [45] was 3.95%, the viability, T/C [46] was 0.79% and the viability, T/C [25] was 46.7%. For the same molecule, the viability, T/C [30] was 48.8%, the viability, T/C [47] was 19.4% and the viability, T/C [48] was 8.2%. For the same molecule, the viability, T/C [49] was 0.75% and the viability, T/C [50] was 0.36%.

For `O=C(c1cc(Cc2n[nH]c(=O)c3ccccc23)ccc1F)N1CCN(C(=O)C2CC2)CC1` + COc1cc2nc(C)nc(NC(C)c3cc(N)cc(C(F)(F)F)c3)c2cc1OC1CCOC1, the IC50 (second compound 0.1 µM) was > 10000 nM, the IC50 (second compound 0.316 µM) was > 10000 nM and the IC50 (second compound 1 µM) was > 10000 nM. The IC50 (second compound 3.16 µM) was > 10000 nM, the IC50 (second compound 10 µM) was > 10000 nM and the viability, T/C [5] was 129%. For the same molecule, the viability, T/C [26] was 122%, the viability, T/C [31] was 110% and the viability, T/C [32] was 113%. The viability, T/C [33] was 98.2%, the viability, T/C [34] was 95% and the viability, T/C [10] was 113%. The viability, T/C [27] was 106%, the viability, T/C [35] was 104% and the viability, T/C [36] was 103%. The viability, T/C [37] was 98%, the viability, T/C [38] was 91.5% and the viability, T/C [15] was 129%. It also gave a viability, T/C [28] of 134%, a viability, T/C [39] of 132% and a viability, T/C [40] of 115%. It also gave a viability, T/C [41] of 111%, a viability, T/C [42] of 91.4% and a viability, T/C [20] of 91.4%. The viability, T/C [29] was 102%, the viability, T/C [43] was 94.8% and the viability, T/C [44] was 95.2%. For the same molecule, the viability, T/C [45] was 91.9%, the viability, T/C [46] was 81.7% and the viability, T/C [25] was 97%. It also gave a viability, T/C [30] of 102%, a viability, T/C [47] of 98.4% and a viability, T/C [48] of 92.5%. For the same molecule, the viability, T/C [49] was 107% and the viability, T/C [50] was 93.3%.
